Measurements published in US4698350A, “1-ethyl-6-fluoro-1,4-dihydro- 7-(2,6-dimethyl-4-pyridinyl)-4-oxo-3-quinolinecarboxylic acid and antibacterial use thereof” (Sterling Drug Inc., priority 1984, dated 1987).
Values after ≈ are worked out from the molar mass of the structure shown. Read-outs that look alike come from different tables or passages of the source.

What was measured:
[1] = tested on: Staphylococcus aureus Smith; test: Mouse protection test, S. aureus Smith infection, single dose; assay type: in vivo, ICR mice; Staphylococcus aureus; details: for ED50: Staphylococcus aureus, 168 h, read-out: Protective Dose 50% (95% Confidence Limits)
Method: (§1) ICR mice, female, 18-20 grams each.
(§2) Solutions of Win 52,522 and Win 35,439 were prepared by dissolving the appropriate weight of drug in 0.3 to 0.4 ml of 1 N NaOH and then bringing the solutions to the desired volume with distilled water. Methicillin and vancomycin were dissolved directly in distilled water.
(§3) Two and one-half ml of pool were added to 247.5 ml of 5% gastric mucin to provide the test inoculum containing 2.1×10^4 cells/ml.
(§4) Mice were inoculated intraperitoneally with 0.5 ml of the bacterial test inoculum.
1. Single dose test--Mice were medicated subcutaneously or orally once (0.5 ml) one-half hour postinfection.
(§5) Deaths were recorded daily for seven days for all tests. Fifty percent protective dose values (PD50's) were calculated using probit analysis [SAS Users Guide: Statistics, 1982 Edition, SAS Institute, Inc., Cary, N.C.].

E. coli (8739) = test: In vitro antibacterial MIC/MBC test; assay type: cell-based; details: Escherichia coli, ATCC8739; E. coli ATCC No. 8739
Method in brief: (§6)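 In this microdilution assay, strains are exposed to two-fold compound dilutions in MHB (streptococci in BHI+1% NHS) at roughly 1×10^4 cells per well for 18-20 hours at 37° C. Visible growth defines the MIC. Subculture onto MHA or BHI agar+10% NHS defines the MBC.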

E. coli 198 = test: In vitro antibacterial MIC/MBC test; assay type: cell-based; details: Escherichia coli
Method in brief: as §6

E. coli 2350 = test: In vitro antibacterial MIC/MBC test; assay type: cell-based; details: Escherichia coli
Method in brief: as §6

E. coli AH719 = test: In vitro antibacterial MIC/MBC test; assay type: cell-based; details: Escherichia coli
Method in brief: as §6

E. coli Vogel = test: In vitro antibacterial MIC/MBC test; assay type: cell-based; details: Escherichia coli
Method in brief: as §6

P. aeruginosa (15442) = test: In vitro antibacterial MIC/MBC test; assay type: cell-based; details: Pseudomonas aeruginosa, ATCC15442; P. aeruginosa ATCC No. 15442
Method in brief: as §6

P. aeruginosa (27853) = test: In vitro antibacterial MIC/MBC test; assay type: cell-based; details: Pseudomonas aeruginosa, ATCC27853; P. aeruginosa ATCC No. 27853
Method in brief: as §6

P. aeruginosa (7700) = test: In vitro antibacterial MIC/MBC test; assay type: cell-based; details: Pseudomonas aeruginosa, ATCC7700; P. aeruginosa ATCC No. 7700
Method in brief: as §6

P. aeruginosa (9027) = test: In vitro antibacterial MIC/MBC test; assay type: cell-based; details: Pseudomonas aeruginosa, ATCC9027; P. aeruginosa ATCC No. 9027
Method in brief: as §6

P. aeruginosa MGH-2 = test: In vitro antibacterial MIC/MBC test; assay type: cell-based; details: Pseudomonas aeruginosa, MGH2
Method in brief: as §6

E. coli = test: In vitro MIC/MBC summary (Table II); assay type: cell-based; details: Escherichia coli, 5 E. coli strains
Method: (§7) Win 52,522 and Win 35,439 were solubilized in 0.1 ml of 0.5 N NaOH/mg of compound and diluted in sterile distilled water to 160 mcg/ml. Vancomycin and methicillin were solubilized in sterile distilled water to 1250 mcg/ml of base compound. The stock solutions were sterilized by filtration through membrane filters with a 0.45 μm pore size.
(§8) The bacterial cultures listed in Table I (hereinbelow) were grown overnight at 37° C. in MHB for all cultures except the Streptococcus strains. These were grown in BHI+10% NHS. The overnight broth cultures were adjusted to an optical density of 0.10 (650 nm, B L Spectronic 20) in sterile distilled water and subsequently diluted to 6.7×10^6 cells/ml in MHB or BHI+1% NHS.
(§9) Serial two-fold dilutions of the compound solutions were prepared in MHB (or in BHI+1% NHS for tests with Streptococci) and dispensed into 96-well microtiter trays in a volume of 0.1 ml/well using a Sandy Springs (Bellco Glass Co.) dispenser. The trays were then inoculated with 0.0015 ml of a suspension containing 6.7×10^6 cells/ml of the appropriate inoculum using a MIC-2000 inoculator (Dynatech Corp.) resulting in a final inoculum of approximately 1×10^4 cells/well or 1×10^5 cells/ml. The trays were incubated at 37° C. for 18-20 hours and the minimal inhibitory concentration (MIC), defined as the lowest concentration of compound to inhibit visible bacterial growth, was recorded.
(§10) After the MIC values were recorded, the contents in the microtiter trays were thoroughly mixed on a Bellco Mini-orbital Shaker (Bellco Glass Co.) for 3 min. at a setting of 8. A portion (0.0015 ml) from each well was then transferred via an MIC-2000 inoculator to plates containing MHA or BHI agar+10% NHS. The plates were incubated at 37° C. for 18-20 hrs. The minimal bactericidal concentration (MBC), defined as the lowest concentration of compound that prevented the formation of a recognizable colony on the agar surface, was recorded.

P. aeruginosa = test: In vitro MIC/MBC summary (Table II); assay type: cell-based, Pseudomonas aeruginosa; details: Pseudomonas aeruginosa, 5 P. aeruginosa strains
Method: as §7, §8, §9, §10

[2] = tested on: Staphylococcus aureus Smith; test: Mouse protection test, S. aureus Smith infection, multiple dose; assay type: in vivo, ICR mice; Staphylococcus aureus; details: for ED50: Staphylococcus aureus, 168 h, read-out: Protective Dose 50% (95% Confidence Limits)
Method: as §1, §2, §3, §4
2. Multiple dose test--Mice were medicated subcutaneously (0.2 ml) or orally (0.5 ml) at the following times: six hours and one hour preinfection (infection at 2 pm) and twice a day (8 a.m. and 3:30 p.m.) for the next two successive days.
as §5

SMILES: CN[C@H](CC(C)C)C(=O)N[C@H]1C(=O)N[C@@H](CC(N)=O)C(=O)N[C@H]2C(=O)N[C@H]3C(=O)N[C@H](C(=O)N[C@H](C(=O)O)c4cc(O)cc(O)c4-c4cc3ccc4O)[C@H](O)c3ccc(c(Cl)c3)Oc3cc2cc(c3O[C@@H]2O[C@H](CO)[C@@H](O)[C@H](O)[C@H]2O[C@H]2C[C@](C)(N)[C@H](O)[C@H](C)O2)Oc2ccc(cc2Cl)[C@H]1O [Vancomycin]
- Survivors/Total ([1]; 0.78 mg/kg sc, single dose): 2/10
- Survivors/Total ([1]; 1.56 mg/kg sc, single dose): 9/10
- Survivors/Total ([1]; 3.13 mg/kg sc, single dose): 9/10
- Survivors/Total ([1]; 6.25 mg/kg sc, single dose): 10/10
- Survivors/Total ([1]; 12.5 mg/kg sc, single dose): 10/10
- ED50 ([1]; sc): 1.1 mg/kg

SMILES: CCn1cc(C(=O)O)c(=O)c2ccc(-c3cc(C)nc(C)c3)cc21 [Win 35,439, 1-ethyl-1,4-dihydro-7-(2,6-dimethyl-4-pyridinyl)-4-oxo-3-quinolinecarboxylic acid]
- MBC (E. coli (8739)): 0.5 mg/L (≈ 1.55 µM)
- MIC (E. coli (8739)): 0.5 mg/L (≈ 1.55 µM)
- MBC (E. coli 198): 2 mg/L (≈ 6.2 µM)
- MIC (E. coli 198): 2 mg/L (≈ 6.2 µM)
- MBC (E. coli 2350): 0.5 mg/L (≈ 1.55 µM)
- MIC (E. coli 2350): 0.5 mg/L (≈ 1.55 µM)
- MBC (E. coli AH719): 0.5 mg/L (≈ 1.55 µM)
- MIC (E. coli AH719): 0.5 mg/L (≈ 1.55 µM)
- MBC (E. coli Vogel): 2 mg/L (≈ 6.2 µM)
- MIC (E. coli Vogel): 2 mg/L (≈ 6.2 µM)
- MBC (P. aeruginosa (15442)): > 16 mg/L
- MIC (P. aeruginosa (15442)): > 16 mg/L
- MBC (P. aeruginosa (27853)): > 16 mg/L
- MIC (P. aeruginosa (27853)): 16 mg/L (≈ 49.6 µM)
- MBC (P. aeruginosa (7700)): > 16 mg/L
- MIC (P. aeruginosa (7700)): 16 mg/L (≈ 49.6 µM)
- MBC (P. aeruginosa (9027)): > 16 mg/L
- MIC (P. aeruginosa (9027)): 8 mg/L (≈ 24.8 µM)
- MBC (P. aeruginosa MGH-2): 16 mg/L (≈ 49.6 µM)
- MIC (P. aeruginosa MGH-2): 8 mg/L (≈ 24.8 µM)
- MIC (E. coli): 0.5 to 2 mg/L (≈ 1.55 to 6.2 µM)
- MIC50 (E. coli): 0.5 mg/L (≈ 1.55 µM)
- MIC90 (E. coli): 2 mg/L (≈ 6.2 µM)
- MBC (E. coli; read-out: MBC 50%): 0.5 mg/L (≈ 1.55 µM)
- MBC (E. coli; read-out: MBC Range): 0.5 to 2 mg/L (≈ 1.55 to 6.2 µM)
- MIC50 (P. aeruginosa): 16 mg/L (≈ 49.6 µM)
- MIC90 (P. aeruginosa): 16 mg/L (≈ 49.6 µM)
- MBC (P. aeruginosa; read-out: MBC 50%): > 16 mg/L
- MBC (P. aeruginosa; read-out: MBC 90%): > 16 mg/L
- Survivors/Total ([1]; 0.39 mg/kg po, single dose): 0/10
- Survivors/Total ([1]; 0.78 mg/kg po, single dose): 1/10
- Survivors/Total ([1]; 0.78 mg/kg sc, single dose): 1/10
- Survivors/Total ([1]; 1.56 mg/kg po, single dose): 0/10
- Survivors/Total ([1]; 1.56 mg/kg sc, single dose): 0/10
- Survivors/Total ([1]; 3.13 mg/kg po, single dose): 0/10
- Survivors/Total ([1]; 3.13 mg/kg sc, single dose): 6/10
- Survivors/Total ([1]; 6.25 mg/kg po, single dose): 7/10
- Survivors/Total ([1]; 6.25 mg/kg sc, single dose): 10/10
- ED50 ([1]; po, single dose): ~5.5 mg/kg
- ED50 ([1]; sc, single dose): 2.9 mg/kg
- Survivors/Total ([2]; 3.13 mg/kg po): 0/10
- Survivors/Total ([2]; 3.13 mg/kg sc): 1/10
- Survivors/Total ([2]; 6.25 mg/kg po): 4/10
- Survivors/Total ([2]; 6.25 mg/kg sc): 3/10
- Survivors/Total ([2]; 12.5 mg/kg po): 9/10
- Survivors/Total ([2]; 12.5 mg/kg sc): 10/10
- Survivors/Total ([2]; 25 mg/kg po): 10/10
- Survivors/Total ([2]; 25 mg/kg sc): 10/10
- ED50 ([2]; po): 7.2 mg/kg
- ED50 ([2]; sc): 7.1 mg/kg
